The text below walks through data of patent US9586961B2, “Homopiperazine derivatives as protein tyrosine kinase inhibitors and pharmaceutical use thereof” (LEO PHARMA A/S, priority 2010, dated 2017).

What all share (assay type): biochemical
One test addresses T1, JAK2 (Homo sapiens, UniProt O60674).
T1 construct: All four purified enzymes contain only the catalytic domain; His (N); purchased Carna Biosciences, Inc; host or cells: baculovirus expression system
The test is described as follows: JAK2 kinase assay (HTRF, inhibition of phosphorylation of a synthetic peptide). The note with it: catalytic domain, His-tag; 4 μM ATP (Km); read-out: JAK2 kinase inhibitory activity (EC50). A digest of the protocol:
(§1)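 HTRF detection (streptavidin-XL665, cryptate anti-phospho antibody, overnight in the dark) after EDTA stop of a 20-30 min RT reaction on 1 μM TK substrate-biotin. Km-level ATP per kinase: 7 μM for JAK1 and 13 μM for TYK2, both N-terminal GST, with 50 nM SEB; 4 μM for JAK2 and 2 μM for JAK3, both His-tagged. Catalytic domains only; DMSO 0.75%.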

In a further test the target is T2, JAK3 (Homo sapiens, UniProt P52333).
T2 construct: All four purified enzymes contain only the catalytic domain; His (N); purchased Carna Biosciences, Inc; host or cells: baculovirus expression system
The test is described as follows: JAK3 kinase assay (HTRF, inhibition of phosphorylation of a synthetic peptide). The note with it: catalytic domain, His-tag; 2 μM ATP (Km); read-out: JAK3 kinase inhibitory activity (EC50). A digest of the protocol: as §1
(Time-resolved FRET reads energy transfer from a long-lived donor to a nearby acceptor.)

For the next test, the target named is T3, JAK1 (Homo sapiens, UniProt P23458).
T3 construct: JAK1 (aa 850-1154) and TYK2 (aa 871-1187) are expressed with an N-terminally fused GST-tag; GST (N); purchased Carna Biosciences, Inc; host or cells: baculovirus expression system
The test is described as follows: JAK1 kinase assay (HTRF, inhibition of phosphorylation of a synthetic peptide). The note with it: catalytic domain aa 850-1154, GST-tag; 7 μM ATP (Km); read-out: JAK1 kinase inhibitory activity (EC50). A digest of the protocol: as §1

The next test addresses T4, TYK2 (Homo sapiens, UniProt P29597).
T4 construct: JAK1 (aa 850-1154) and TYK2 (aa 871-1187) are expressed with an N-terminally fused GST-tag; GST (N); purchased Carna Biosciences, Inc; host or cells: baculovirus expression system
T4 sequence (P29597 871-1187): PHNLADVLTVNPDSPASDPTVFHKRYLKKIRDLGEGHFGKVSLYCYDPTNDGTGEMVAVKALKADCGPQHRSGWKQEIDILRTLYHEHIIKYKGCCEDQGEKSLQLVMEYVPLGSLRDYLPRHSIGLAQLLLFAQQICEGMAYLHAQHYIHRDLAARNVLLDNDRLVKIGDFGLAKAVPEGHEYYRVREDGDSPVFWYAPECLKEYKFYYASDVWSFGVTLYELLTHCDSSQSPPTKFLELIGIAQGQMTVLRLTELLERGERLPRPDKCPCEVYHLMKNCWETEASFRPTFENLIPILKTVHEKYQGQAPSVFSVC
The test is described as follows: TYK2 kinase assay (HTRF, inhibition of phosphorylation of a synthetic peptide). Particulars: catalytic domain aa 871-1187, GST-tag; 13 μM ATP (Km); read-out: TYK2 kinase inhibitory activity (EC50). In short, it runs like this:
as §1

T3 sequence (P23458 850-1154): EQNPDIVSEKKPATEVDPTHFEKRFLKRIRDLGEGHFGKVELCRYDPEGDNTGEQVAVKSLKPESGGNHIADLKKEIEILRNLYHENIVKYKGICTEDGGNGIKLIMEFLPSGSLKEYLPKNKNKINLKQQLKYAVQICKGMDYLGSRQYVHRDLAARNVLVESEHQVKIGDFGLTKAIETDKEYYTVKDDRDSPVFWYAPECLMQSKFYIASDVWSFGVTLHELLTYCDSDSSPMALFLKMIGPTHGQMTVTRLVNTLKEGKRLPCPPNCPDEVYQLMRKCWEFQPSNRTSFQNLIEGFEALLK
T2 sequence (P52333 822-1111 limits assumed): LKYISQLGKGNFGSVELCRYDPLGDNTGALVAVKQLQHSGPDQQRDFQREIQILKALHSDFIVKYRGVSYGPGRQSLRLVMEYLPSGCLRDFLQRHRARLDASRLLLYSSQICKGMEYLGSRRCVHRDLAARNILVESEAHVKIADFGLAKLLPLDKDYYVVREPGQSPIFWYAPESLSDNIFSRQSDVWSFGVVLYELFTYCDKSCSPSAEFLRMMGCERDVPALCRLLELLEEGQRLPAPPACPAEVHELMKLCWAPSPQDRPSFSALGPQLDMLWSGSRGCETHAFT
T1 sequence (O60674 849-1124 limits assumed): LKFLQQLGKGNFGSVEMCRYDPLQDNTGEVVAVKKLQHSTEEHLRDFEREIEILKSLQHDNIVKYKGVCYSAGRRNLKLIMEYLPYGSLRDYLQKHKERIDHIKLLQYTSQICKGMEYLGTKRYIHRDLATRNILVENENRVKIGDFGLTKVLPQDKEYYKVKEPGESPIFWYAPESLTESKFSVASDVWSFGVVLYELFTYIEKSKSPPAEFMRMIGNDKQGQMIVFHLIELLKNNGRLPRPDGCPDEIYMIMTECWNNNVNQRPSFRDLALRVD

Usually EC50 stands for the concentration giving half of the maximal effect. In the case of `O=C(Cc1ccc(Br)cc1)N1CCN(c2ncnc3[nH]ccc23)CC2(CC2)C1` [Example 264, 2-(4-bromophenyl)-1-[5-(7H-pyrrolo[2,3-d]pyrimidin-4-yl)-5,8-diazaspiro[2.6]nonan-8-yl]ethanone], the EC50 at JAK2 is less than 100 nM; on JAK3, less than 100 nM; at JAK1, less than 100 nM; at TYK2 it was 100 to 1000 nM.

On to `O=C(Cc1ccc(C(F)(F)F)cc1)N1CCN(c2ncnc3[nH]ccc23)CC2(CC2)C1` [Example 271, 1-[5-(7H-pyrrolo[2,3-d]pyrimidin-4-yl)-5,8-diazaspiro[2.6]nonan-8-yl]-2-[4-(trifluoromethyl)phenyl]ethanone], for which the EC50 at JAK2 is less than 100 nM; at JAK3, 100 to 1000 nM; on JAK1, less than 100 nM; at TYK2 it was 100 to 1000 nM.

As for `O=C(Cc1ccc(OC(F)(F)F)cc1)N1CCN(c2ncnc3[nH]ccc23)CC2(CC2)C1` [Example 274, 1-[5-(7H-pyrrolo[2,3-d]pyrimidin-4-yl)-5,8-diazaspiro[2.6]nonan-8-yl]-2-[4-(trifluoromethoxy)phenyl]ethanone], the EC50 on JAK2 is less than 100 nM; on JAK3, 100 to 1000 nM; on JAK1 it was less than 100 nM; on TYK2, more than 1000 nM.

Consider `Cc1c[nH]c(C(=O)N2CCCN(c3ncnc4[nH]ccc34)CC23CC3)c1` [Example 277, (4-methyl-1H-pyrrol-2-yl)-[5-(7H-pyrrolo[2,3-d]pyrimidin-4-yl)-5,9-diazaspiro[2.6]nonan-9-yl]methanone], for which the EC50 is less than 100 nM on JAK2, 100 to 1000 nM on JAK3, less than 100 nM on JAK1 and 100 to 1000 nM on TYK2.

For the molecule `Cc1[nH]c(C(=O)N2CCCN(c3ncnc4[nH]ccc34)CC23CC3)cc1C#N` [Example 278, 2-methyl-5-[5-(7H-pyrrolo[2,3-d]pyrimidin-4-yl)-5,9-diazaspiro[2.6]nonane-9-carbonyl]-1H-pyrrole-3-carbonitrile], the EC50 on JAK2 was less than 100 nM; at JAK3, 100 to 1000 nM; on JAK1 it was less than 100 nM; on TYK2, 100 to 1000 nM.

For the molecule `CCCCN1CCN(c2ncnc3[nH]ccc23)CC2(CC2)C1` [Example 279, 4-(5-butyl-5,8-diazaspiro[2.6]nonan-8-yl)-7H-pyrrolo[2,3-d]pyrimidine], the EC50 on JAK2, at JAK3, on JAK1 and on TYK2 was more than 1000 nM in each case.

As for `CCCCN1CCCN(c2ncnc3[nH]ccc23)CC12CC2` [Example 281, 4-(9-butyl-5,9-diazaspiro[2.6]nonan-5-yl)-7H-pyrrolo[2,3-d]pyrimidine], the EC50 at JAK2 is 100 to 1000 nM; at JAK3, 100 to 1000 nM; on JAK1, 100 to 1000 nM; at TYK2, more than 1000 nM.

With `CCCCC(=O)Nc1nc(N2CCN(Cc3ccccc3)CC3(CC3)C2)c2cc[nH]c2n1` [Example 282, N-[4-(5-benzyl-5,8-diazaspiro[2.6]nonan-8-yl)-7H-pyrrolo[2,3-d]pyrimidin-2-yl]pentanamide], the EC50 on JAK2, on JAK3, on JAK1 and on TYK2 was more than 1000 nM each time.

As to `CCCCC(=O)Nc1nc(N2CCCN(Cc3ccccc3)C3(CC3)C2)c2cc[nH]c2n1` [Example 283, N-[4-(9-benzyl-5,9-diazaspiro[2.6]nonan-5-yl)-7H-pyrrolo[2,3-d]pyrimidin-2-yl]pentanamide], the EC50 at JAK2, on JAK3, at JAK1 and at TYK2 was more than 1000 nM each time.

`CC1CN(c2ncnc3[nH]ccc23)CC2(CC2)CN1C(=O)c1ccccc1` (centres unmarked) [Example 284, [7-methyl-5-(7H-pyrrolo[2,3-d]pyrimidin-4-yl)-5,8-diazaspiro[2.6]nonan-8-yl]-phenyl-methanone]: the EC50 at JAK2, on JAK3, on JAK1 and at TYK2 was more than 1000 nM in each case.

Consider `CC1CN(c2ncnc3[nH]ccc23)CC2(CC2)CN1C(=O)CC1CCCC1` (centres unmarked) [Example 285, 2-cyclopentyl-1-[7-methyl-5-(7H-pyrrolo[2,3-d]pyrimidin-4-yl)-5,8-diazaspiro[2.6]nonan-8-yl]ethanone], for which the EC50 at JAK2 was 100 to 1000 nM; on JAK3 it was more than 1000 nM; at JAK1, 100 to 1000 nM; at TYK2, more than 1000 nM.

On to `CC1CN(c2ncnc3[nH]ccc23)CC2(CC2)CN1C(=O)Cc1ccc(C#N)cc1` (centres unmarked) [Example 286, 4-[2-[7-methyl-5-(7H-pyrrolo[2,3-d]pyrimidin-4-yl)-5,8-diazaspiro[2.6]nonan-8-yl]-2-oxo-ethyl]benzonitrile], for which the EC50 on JAK2, at JAK3, on JAK1 and at TYK2 was more than 1000 nM throughout.

As for `c1nc(N2CCNCC3(CC3)C2)c2cc[nH]c2n1` [Example 290], the EC50 at JAK2, on JAK3, at JAK1 and on TYK2 was more than 1000 nM in each case.

Consider `c1nc(N2CCNC3(CC2)CC3)c2cc[nH]c2n1` [Example 291], for which the EC50 at JAK2, at JAK3, on JAK1 and on TYK2 was more than 1000 nM each time.

As to `CC1CN(c2ncnc3[nH]ccc23)CC2(CC2)CN1` (centres unmarked) [Example 293], the EC50 on JAK2, at JAK3, on JAK1 and on TYK2 was more than 1000 nM throughout.

As for `CCCCC(=O)Nc1nc(N2CCNCC3(CC3)C2)c2cc[nH]c2n1` [Example 294], the EC50 at JAK2, at JAK3, at JAK1 and on TYK2 was more than 1000 nM in each case.

In the case of `CCCCC(=O)Nc1nc(N2CCCNC3(CC3)C2)c2cc[nH]c2n1` [Example 295], the EC50 at JAK2, at JAK3, at JAK1 and on TYK2 was more than 1000 nM in each case.
